# Measurements from ChEMBL document CHEMBL1201862, “PubChem BioAssay data set” (2004).
# Calls of active or inactive are those of the source.
# Tests used:
# [1] = target: T1, Carboxy-terminal domain RNA polymerase II polypeptide A small phosphatase 1 (Homo sapiens, UniProt Q9GZU7); test: CTDSP1 inhibitors, concentration-response, biochemical, absorbance readout, ultra-high-throughput screen actives (AID 540297); type: functional
# T1 sequence (Q9GZU7 whole entry): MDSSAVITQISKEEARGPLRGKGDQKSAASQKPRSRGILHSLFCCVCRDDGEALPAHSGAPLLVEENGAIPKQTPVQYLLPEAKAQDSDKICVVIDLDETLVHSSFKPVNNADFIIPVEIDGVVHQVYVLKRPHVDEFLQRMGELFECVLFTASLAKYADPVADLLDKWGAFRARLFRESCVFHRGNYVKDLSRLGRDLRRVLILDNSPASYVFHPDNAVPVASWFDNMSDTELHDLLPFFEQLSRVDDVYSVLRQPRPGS
# [2] = target: Dual specificity protein phosphatase 3 (Homo sapiens, UniProt P51452); test: VHR phosphatase inhibition, dose response, selectivity assay for STEP inhibitor project, biochemical (AID 602374); type: functional; conditions: read-out: IC50_Mean
# [3] = target: Tyrosine-protein phosphatase non-receptor type 5 (Homo sapiens, UniProt P54829); test: PTPN5 enzyme inhibition – biochemical, fluorescence intensity, uHTS hits, confirmation (AID 602372); type: functional; conditions: read-out: IC50_Mean
# [4] = target: T2, Tyrosine-protein phosphatase non-receptor type 22 (Homo sapiens, UniProt Q9Y2R2); test: lymphoid phosphatase LYP inhibitors – biochemical, selectivity assay for STEP inhibitor project, dose response (AID 624241); type: functional
# T2 sequence (Q9Y2R2 whole entry): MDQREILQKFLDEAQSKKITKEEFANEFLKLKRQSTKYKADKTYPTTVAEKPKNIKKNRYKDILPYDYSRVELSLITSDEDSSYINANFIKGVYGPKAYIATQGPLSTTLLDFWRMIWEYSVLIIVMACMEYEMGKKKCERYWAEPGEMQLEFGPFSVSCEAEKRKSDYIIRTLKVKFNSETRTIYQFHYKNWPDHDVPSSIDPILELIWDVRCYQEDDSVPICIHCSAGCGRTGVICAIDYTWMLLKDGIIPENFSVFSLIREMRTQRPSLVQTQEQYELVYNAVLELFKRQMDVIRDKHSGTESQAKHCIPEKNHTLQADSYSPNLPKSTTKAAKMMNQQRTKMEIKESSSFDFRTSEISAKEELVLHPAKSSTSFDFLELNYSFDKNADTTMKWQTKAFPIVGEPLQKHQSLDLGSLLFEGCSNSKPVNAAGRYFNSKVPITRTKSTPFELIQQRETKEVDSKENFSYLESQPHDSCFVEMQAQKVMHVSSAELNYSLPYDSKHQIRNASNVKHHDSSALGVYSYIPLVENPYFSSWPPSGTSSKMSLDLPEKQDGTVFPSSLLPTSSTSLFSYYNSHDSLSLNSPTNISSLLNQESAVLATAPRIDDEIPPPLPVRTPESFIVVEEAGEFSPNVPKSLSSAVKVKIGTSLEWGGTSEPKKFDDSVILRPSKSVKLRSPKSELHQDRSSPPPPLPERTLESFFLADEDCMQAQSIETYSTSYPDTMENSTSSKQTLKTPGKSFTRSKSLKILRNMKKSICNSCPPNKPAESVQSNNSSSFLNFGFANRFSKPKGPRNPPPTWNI
# [5] = target: Tyrosine-protein phosphatase non-receptor type 11 (Homo sapiens, UniProt Q06124); test: PTPN11 enzyme inhibitors – biochemical, selectivity assay for STEP inhibitor project, dose response (AID 602367); type: functional; conditions: read-out: IC50_Mean
# [6] = target: T3, Probable nicotinate-nucleotide adenylyltransferase (Staphylococcus aureus (strain N315), UniProt P65502); type: functional, Staphylococcus aureus subsp. aureus N315;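 as to IC50 Mean: confirmatory dose-response retesting of NadD inhibitor hits first found in an ultra-high-throughput screen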
# [7] = target: Induced myeloid leukemia cell differentiation protein Mcl-1 (Homo sapiens, UniProt Q07820); type: functional
# [8] = target: T3, Probable nicotinate-nucleotide adenylyltransferase; type: functional, Staphylococcus aureus subsp. aureus N315; conditions: read-out: IC50_Mean
# [9] = target: E3 ubiquitin-protein ligase XIAP (Homo sapiens, UniProt P98170); test: Counter Screen using XIAP-Bir3 for Chemical Antagonists of Bir1/2 domains of IAP-family anti-apoptotic proteins. [Related pubchem assays (depositor defined):AID1018, AID1449, AID1514, AID1638, AID1749, AID1750, AID488957, AID488963]
# [10] = target: 26S proteasome non-ATPase regulatory subunit 14 (Homo sapiens, UniProt O00487); test: inhibition of proteasome subunit RPN11 – biochemical, fluorescence polarization, uHTS hits, confirmation (AID 602368); type: functional
# Albumin = Albumin (Bos taurus, UniProt P02769); test: Counterscreen for inhibitors of T-cell receptor (TCR)-CD3 interaction: Fluorescence-based biochemical high throughput dose response assay to identify inhibitors of T-cell receptor (TCR)-CD3 interaction using a TAMRA-labeled BSA probe.; type: functional
# [11] = target: T4, Small ubiquitin-related modifier 1 (Homo sapiens, UniProt P63165); test: SUMO1 protein interaction blockers, potency – biochemical, fluorescence polarization, uHTS hits, dose response (AID 624382); type: functional; conditions: read-out: IC50_Mean
# [12] = target: 72 kDa type IV collagenase (Homo sapiens, UniProt P08253); test: Dose Response validation of uHTS RPN11 inhibitor hits using a MMP-2 Fluorescence assay.; type: functional
# [13] = target: RNA-editing ligase 1, mitochondrial (Trypanosoma brucei brucei, UniProt P86926); test: inhibition of trypanosome RNA editing ligase – biochemical, fluorescence, Trypanosoma brucei, dose response (AID 1117295); type: functional
# [14] = target: T4, Small ubiquitin-related modifier 1; test: SUMO1 protein-protein binding blockers, potency – biochemical, FRET, dose response (AID 624383); type: functional; conditions: read-out: IC50_Mean
# Prothrombin = Prothrombin (Bos taurus, UniProt P00735); test: thrombin protease inhibitors – biochemical, fluorescence polarization, uHTS hits, dose response (AID 602369); type: functional
# [15] = target: T5, Trace amine-associated receptor 1 (Homo sapiens, UniProt Q96RJ0); test: Counterscreen for agonists of the human trace amine associated receptor 1 (hTAAR1): Fluorescence-based cell-based high throughput dose response assay to identify hTAAR1 agonist that also desensitize TAAR1 receptor response.; type: functional
# [16] = target: T5, Trace amine-associated receptor 1; test: Fluorescence-based cell-based high throughput dose response assay to identify agonists of the human trace amine associated receptor 1 (TAAR1).; type: functional
# cells [17] = type: functional, cell-based
# cells [18] = type: functional, cell-based; remark: listed apart in the source
# [19] = target: T6, Voltage-gated N-type calcium channel alpha-1B subunit/Amyloid beta A4 precursor protein-binding family A member 1 (Homo sapiens, UniProt Q00975+Q02410); type: protein assay
# Ephrin type-A receptor 4 = Ephrin type-A receptor 4 (Mus musculus, UniProt Q03137); test: EphA4 ligand-binding antagonists – biochemical, colorimetric, mouse EphA4, primary screen (AID 689); type: functional
# [20] = target: T6, Voltage-gated N-type calcium channel alpha-1B subunit/Amyloid beta A4 precursor protein-binding family A member 1; type: protein assay; remark: listed apart in the source
# [21] = target: Beta-2 adrenergic receptor (Homo sapiens, UniProt P07550); test: Dose response for HTS for Beta-2AR agonists via FAP method from Powderset3.; type: functional
# [22] = target: T7, Low molecular weight phosphotyrosine protein phosphatase (Homo sapiens, UniProt P24666); type: functional; conditions: read-out: IC50_Mean
# [23] = target: T2, Tyrosine-protein phosphatase non-receptor type 22; test: PTPN22 enzyme inhibitors – biochemical, fluorescence, LYP catalytic domain, selectivity assay for LMPTP inhibitor project, dose response (AID 652006); type: functional; conditions: read-out: IC50_Mean
# [24] = target: T7, Low molecular weight phosphotyrosine protein phosphatase; type: functional; conditions: read-out: IC50_Mean; remark: listed apart in the source
# Beta-lactamase [25] = target: T8, Beta-lactamase (Salmonella choleraesuis (strain SC-B67), UniProt Q5J463)
# Beta-lactamase [26] = target: T9, Beta-lactamase (Pseudomonas aeruginosa, UniProt Q79MP6)
# Beta-galactosidase = Beta-galactosidase (Escherichia coli, UniProt Q8VNN2); test: Dose response counterscreen for EBI2 assay utilizing the enzyme, b-galactosidase.; type: functional
# Cytochrome P450 2C9 = Cytochrome P450 2C9 (Homo sapiens, UniProt P11712)
# P388 = test: cells; type: functional; conditions: Mus musculus
# Paired box protein Pax-8 = Paired box protein Pax-8 (Homo sapiens, UniProt Q06710); test: PAX8 transcriptional activity inhibition in RMG-I – RMG-I cells, luciferase, cherry-pick, dose response (AID 687027); type: functional, cell-based;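 also: luciferase reporter driven by Pax8 target thyroperoxidase promoter measured by SteadyGlo luminescence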
# P388/ADR = test: cells; type: functional; conditions: Mus musculus
# Cytochrome P450 2D6 = Cytochrome P450 2D6 (Homo sapiens, UniProt P10635);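 also: CYP2D6 member of a cytochrome P450 panel assay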
# [27] = Luminescence-based dose response cell-based high throughput screening assay for cytotoxic compounds using the IEC-6 intestinal epithelial cell line. [Related pubchem assays: 1858 (Summary AID.), 1825 (Counterscreen.), 1907 (Confirmation screen.)]; type: functional
# [28] = HEK-293T viability loss after treatment – luminescence, T-cell screen hits, cytotoxicity control for TCR NF-kB inhibitor project, dose response (AID 489026); type: functional, cell-based;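 also: cells exposed to compound about 14 hours before the viability readout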
# [29] = rise of 2N DNA cells, HeLa – IC50, dose response (AID 1117349); type: functional, cell-based
# [30] = target: T10, Nuclear receptor subfamily 0 group B member 1 (Homo sapiens, UniProt P51843); type: functional, cell-based;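 also: HEK293T cells transfected with SF-1 and DAX-1 plus StAR promoter luciferase reporter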
# T10 sequence (P51843 whole entry): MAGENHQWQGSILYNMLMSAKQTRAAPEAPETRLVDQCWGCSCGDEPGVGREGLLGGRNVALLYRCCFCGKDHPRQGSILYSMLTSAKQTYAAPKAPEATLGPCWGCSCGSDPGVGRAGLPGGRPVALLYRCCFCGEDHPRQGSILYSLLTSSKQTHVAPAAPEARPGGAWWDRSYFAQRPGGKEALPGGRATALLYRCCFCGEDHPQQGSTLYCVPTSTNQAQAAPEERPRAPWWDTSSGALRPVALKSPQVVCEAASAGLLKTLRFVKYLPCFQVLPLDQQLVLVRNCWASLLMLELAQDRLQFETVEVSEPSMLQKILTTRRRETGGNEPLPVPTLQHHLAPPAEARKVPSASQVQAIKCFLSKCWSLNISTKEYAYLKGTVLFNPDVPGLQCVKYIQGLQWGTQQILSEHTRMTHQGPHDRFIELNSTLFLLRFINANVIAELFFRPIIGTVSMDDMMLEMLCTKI
# SN12K1 = test: cells; type: functional; conditions: Homo sapiens
# cells [31] = type: functional, cell-based; remark: listed apart in the source
# Beta-lactamase [32] = target: T9, Beta-lactamase; test: […] counterscreen for selective VIM-2 inhibitors: dose response biochemical high throughput screening assay to identify inhibitors of IMP-1 metallo-beta-lactamase.
# Beta-lactamase [33] = target: T9, Beta-lactamase; test: inhibition of IMP-1 beta-lactamase activity – biochemical, epi-absorbance, selectivity assay for VIM-2 inhibitor project, dose response (AID 1920)
# Beta-lactamase [34] = target: T8, Beta-lactamase; test: Epi-absorbance-based counterscreen for selective VIM-2 inhibitors: dose response biochemical high throughput screening assay to identify inhibitors of TEM-1 serine-beta-lactamase.
# Sequence of Induced myeloid leukemia cell differentiation protein Mcl-1 (Q07820 whole entry): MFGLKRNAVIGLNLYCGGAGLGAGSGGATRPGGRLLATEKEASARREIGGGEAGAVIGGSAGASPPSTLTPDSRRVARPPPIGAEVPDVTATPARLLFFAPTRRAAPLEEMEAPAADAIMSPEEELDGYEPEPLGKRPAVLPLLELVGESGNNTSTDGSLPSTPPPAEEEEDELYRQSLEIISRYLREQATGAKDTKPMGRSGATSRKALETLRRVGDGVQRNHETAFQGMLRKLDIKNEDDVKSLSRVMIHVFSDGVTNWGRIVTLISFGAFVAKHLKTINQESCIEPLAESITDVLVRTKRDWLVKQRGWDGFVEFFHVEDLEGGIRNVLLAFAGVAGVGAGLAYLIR
# T9 sequence (Q79MP6 whole entry): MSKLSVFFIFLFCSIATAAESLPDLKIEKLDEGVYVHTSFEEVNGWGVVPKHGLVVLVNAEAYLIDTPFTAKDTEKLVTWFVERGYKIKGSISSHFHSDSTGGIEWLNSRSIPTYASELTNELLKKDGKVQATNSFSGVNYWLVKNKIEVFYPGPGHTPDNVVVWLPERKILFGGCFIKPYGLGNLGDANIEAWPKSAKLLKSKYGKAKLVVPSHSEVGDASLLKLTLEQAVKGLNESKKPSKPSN
# T8 sequence (Q5J463 whole entry): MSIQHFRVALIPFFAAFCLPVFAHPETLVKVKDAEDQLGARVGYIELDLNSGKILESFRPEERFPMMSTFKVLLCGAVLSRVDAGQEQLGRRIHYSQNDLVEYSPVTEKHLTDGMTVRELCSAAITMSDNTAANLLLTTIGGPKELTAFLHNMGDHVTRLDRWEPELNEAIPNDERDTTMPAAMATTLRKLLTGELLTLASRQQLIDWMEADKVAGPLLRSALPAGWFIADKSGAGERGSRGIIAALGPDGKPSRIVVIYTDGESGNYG
# T5 sequence (Q96RJ0 whole entry): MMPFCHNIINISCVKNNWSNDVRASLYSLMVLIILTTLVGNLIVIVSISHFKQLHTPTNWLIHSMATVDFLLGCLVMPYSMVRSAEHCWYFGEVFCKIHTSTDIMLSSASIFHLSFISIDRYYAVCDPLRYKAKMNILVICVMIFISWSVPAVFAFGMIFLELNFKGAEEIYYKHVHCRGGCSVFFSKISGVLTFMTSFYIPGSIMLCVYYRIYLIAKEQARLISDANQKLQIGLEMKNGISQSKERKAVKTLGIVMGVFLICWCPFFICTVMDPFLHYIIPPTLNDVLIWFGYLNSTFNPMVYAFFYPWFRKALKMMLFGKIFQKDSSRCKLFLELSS
# T6 sequence (Q00975 whole entry): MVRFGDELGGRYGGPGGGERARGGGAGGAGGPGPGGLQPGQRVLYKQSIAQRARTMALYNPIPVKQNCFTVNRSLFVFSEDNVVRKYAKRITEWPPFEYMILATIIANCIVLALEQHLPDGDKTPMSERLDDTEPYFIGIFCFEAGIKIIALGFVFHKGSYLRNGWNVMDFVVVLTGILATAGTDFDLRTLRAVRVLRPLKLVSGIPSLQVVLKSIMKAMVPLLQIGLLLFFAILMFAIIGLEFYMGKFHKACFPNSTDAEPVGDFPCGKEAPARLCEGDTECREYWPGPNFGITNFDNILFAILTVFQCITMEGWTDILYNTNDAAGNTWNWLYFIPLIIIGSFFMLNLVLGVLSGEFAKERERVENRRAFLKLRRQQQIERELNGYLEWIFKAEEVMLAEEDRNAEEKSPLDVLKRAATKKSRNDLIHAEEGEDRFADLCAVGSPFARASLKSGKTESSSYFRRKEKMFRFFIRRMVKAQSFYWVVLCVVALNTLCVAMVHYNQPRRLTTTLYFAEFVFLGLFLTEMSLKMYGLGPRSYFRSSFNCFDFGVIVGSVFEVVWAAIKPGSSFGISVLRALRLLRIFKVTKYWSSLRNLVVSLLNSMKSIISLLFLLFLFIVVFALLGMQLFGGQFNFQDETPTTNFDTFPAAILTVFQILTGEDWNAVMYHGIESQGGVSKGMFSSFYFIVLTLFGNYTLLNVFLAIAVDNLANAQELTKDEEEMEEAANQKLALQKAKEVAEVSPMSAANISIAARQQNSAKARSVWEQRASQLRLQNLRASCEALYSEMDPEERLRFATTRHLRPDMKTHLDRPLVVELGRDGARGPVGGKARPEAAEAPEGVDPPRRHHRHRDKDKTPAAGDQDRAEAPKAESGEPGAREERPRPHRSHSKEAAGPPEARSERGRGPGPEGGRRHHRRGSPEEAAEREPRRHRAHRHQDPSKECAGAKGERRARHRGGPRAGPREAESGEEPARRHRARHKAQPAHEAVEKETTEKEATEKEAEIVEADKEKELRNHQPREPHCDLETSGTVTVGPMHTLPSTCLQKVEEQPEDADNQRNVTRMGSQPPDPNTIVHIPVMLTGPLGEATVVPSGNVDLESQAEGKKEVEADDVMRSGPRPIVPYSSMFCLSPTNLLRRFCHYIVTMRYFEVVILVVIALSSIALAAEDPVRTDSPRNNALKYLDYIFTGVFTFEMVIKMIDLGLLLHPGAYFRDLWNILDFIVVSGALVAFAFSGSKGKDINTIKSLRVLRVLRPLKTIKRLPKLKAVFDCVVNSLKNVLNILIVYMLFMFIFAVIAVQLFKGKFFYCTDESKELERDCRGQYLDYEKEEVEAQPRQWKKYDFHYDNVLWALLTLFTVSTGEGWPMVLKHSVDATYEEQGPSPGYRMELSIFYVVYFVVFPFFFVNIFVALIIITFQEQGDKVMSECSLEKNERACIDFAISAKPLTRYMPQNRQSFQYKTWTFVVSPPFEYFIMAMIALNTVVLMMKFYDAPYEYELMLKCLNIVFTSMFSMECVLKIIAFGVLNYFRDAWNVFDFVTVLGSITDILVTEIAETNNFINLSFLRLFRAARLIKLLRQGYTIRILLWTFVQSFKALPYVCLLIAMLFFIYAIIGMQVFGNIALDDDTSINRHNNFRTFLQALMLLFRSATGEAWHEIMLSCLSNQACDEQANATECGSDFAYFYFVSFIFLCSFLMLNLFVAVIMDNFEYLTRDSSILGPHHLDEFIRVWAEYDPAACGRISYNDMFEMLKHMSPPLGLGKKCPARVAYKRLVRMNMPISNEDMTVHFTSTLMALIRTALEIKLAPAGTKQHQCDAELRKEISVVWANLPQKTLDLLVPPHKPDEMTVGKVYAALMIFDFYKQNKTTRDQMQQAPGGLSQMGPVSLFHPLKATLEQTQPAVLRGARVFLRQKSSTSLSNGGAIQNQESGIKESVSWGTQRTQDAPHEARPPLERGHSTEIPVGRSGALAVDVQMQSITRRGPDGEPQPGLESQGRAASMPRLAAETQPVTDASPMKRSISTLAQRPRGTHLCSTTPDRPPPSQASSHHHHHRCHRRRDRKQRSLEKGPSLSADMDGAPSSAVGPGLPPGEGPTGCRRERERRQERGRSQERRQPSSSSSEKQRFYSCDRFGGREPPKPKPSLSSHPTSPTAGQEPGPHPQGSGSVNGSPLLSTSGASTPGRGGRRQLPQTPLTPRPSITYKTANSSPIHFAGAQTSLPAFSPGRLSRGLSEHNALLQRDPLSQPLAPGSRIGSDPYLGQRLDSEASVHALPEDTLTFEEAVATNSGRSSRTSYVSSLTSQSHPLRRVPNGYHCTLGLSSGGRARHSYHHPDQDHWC
# T6 sequence (Q02410 whole entry): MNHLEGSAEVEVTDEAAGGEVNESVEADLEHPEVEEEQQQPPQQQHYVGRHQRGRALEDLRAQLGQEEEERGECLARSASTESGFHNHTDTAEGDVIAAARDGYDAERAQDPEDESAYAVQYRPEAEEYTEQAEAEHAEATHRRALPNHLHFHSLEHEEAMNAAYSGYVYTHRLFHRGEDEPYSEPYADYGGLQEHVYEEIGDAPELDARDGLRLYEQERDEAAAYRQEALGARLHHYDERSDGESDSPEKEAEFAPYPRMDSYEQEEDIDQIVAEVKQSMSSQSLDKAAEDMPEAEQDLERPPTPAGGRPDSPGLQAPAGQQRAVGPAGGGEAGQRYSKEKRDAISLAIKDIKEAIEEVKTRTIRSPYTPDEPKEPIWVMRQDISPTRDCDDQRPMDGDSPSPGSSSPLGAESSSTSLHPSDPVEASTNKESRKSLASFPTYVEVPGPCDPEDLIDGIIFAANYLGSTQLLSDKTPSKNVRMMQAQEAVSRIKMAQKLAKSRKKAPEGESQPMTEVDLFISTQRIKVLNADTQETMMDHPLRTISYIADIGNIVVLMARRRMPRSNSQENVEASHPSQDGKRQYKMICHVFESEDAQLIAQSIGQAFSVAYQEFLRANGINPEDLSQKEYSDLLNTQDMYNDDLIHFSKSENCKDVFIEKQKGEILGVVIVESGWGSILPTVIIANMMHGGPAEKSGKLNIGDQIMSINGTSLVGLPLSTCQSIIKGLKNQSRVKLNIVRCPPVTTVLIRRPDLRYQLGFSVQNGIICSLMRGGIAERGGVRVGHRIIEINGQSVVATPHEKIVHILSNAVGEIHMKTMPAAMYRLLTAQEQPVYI
# T7 sequence (P24666 whole entry, the tested form may be a part): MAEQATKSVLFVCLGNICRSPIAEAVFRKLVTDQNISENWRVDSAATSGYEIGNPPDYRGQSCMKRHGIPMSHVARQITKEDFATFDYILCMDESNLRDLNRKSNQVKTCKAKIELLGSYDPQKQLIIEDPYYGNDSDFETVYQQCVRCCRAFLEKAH
# T4 sequence (P63165 whole entry): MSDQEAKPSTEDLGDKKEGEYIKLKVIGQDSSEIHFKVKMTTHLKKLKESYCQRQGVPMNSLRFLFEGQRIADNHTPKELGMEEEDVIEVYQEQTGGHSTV
# T3 sequence (P65502 whole entry): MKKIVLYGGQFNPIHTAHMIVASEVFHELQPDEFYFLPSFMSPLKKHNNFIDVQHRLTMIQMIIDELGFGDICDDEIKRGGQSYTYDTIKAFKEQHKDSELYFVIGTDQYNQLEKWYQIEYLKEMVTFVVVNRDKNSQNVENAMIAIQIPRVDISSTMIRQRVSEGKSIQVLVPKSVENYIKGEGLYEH
structure (smiles),measurement,setting,value
O=C(O)CC/C(=N\Nc1ccc(S(=O)(=O)N2CCCC2)cc1[N+](=O)[O-])c1cccs1,IC50,[1],15.5 µM (active)
same,IC50,[2],15.6 µM (active)
same,IC50,[3],19 µM (active)
same,IC50,[4],34.5 µM (inactive)
same,IC50,[5],14.5 µM (active)
COc1ccc(/C=C2\SC(=O)N(CCC(=O)Nc3ccc(S(=O)(=O)Nc4nccs4)cc3)C2=O)cc1,IC50,[6],15.2 µM (active)
same,IC50,[7],3.11 µM (active)
same,IC50,[8],73.1 µM (active)
NS(=O)(=O)c1ccc(NC(=O)c2cccc(N3C(=O)c4ccccc4C3=O)c2)cc1,IC50,[9],> 20 µM (inactive)
same,IC50,[10],40.2 µM (active)
same,IC50,Albumin,> 94.1 µM (inactive)
same,IC50,[11],> 66.6 µM (inactive)
same,IC50,[12],> 100 µM (inactive)
same,IC50,[13],30.8 µM (inactive)
same,IC50,[14],14.4 µM (active)
same,IC50,Prothrombin,> 100 µM (inactive)
O=C(N[C@@H](Cc1cccnc1)C(=O)N1CCC[C@H]1C(=O)NCCc1ccccc1Cl)c1ccc(Cl)cc1Cl,IC50,[15],2.94 µM (active)
same,EC50,[16],4.03 µM (active)
same,EC50,cells [17],> 29.9 µM (inactive)
same,IC50,cells [18],> 29.9 µM (inactive)
CSc1nc(SCCO)c2sc3nc(-c4ccco4)c4c(c3c2n1)CC(C)(C)OC4,IC50,[19],14.3 µM (active)
same,IC50,[1],3.01 µM (active)
same,IC50,Ephrin type-A receptor 4,6.73 µM (active)
same,IC50,[7],1.54 µM (active)
same,IC50,[20],> 56.8 µM (not active)
same,EC50,[21],1.81 µM (active)
COc1ccc(-c2ccc(/C=N/NC(=O)c3cccnc3)o2)c([N+](=O)[O-])c1,IC50,[22],12 µM (active)
same,IC50,[23],38.5 µM (inactive)
same,IC50,[7],3.42 µM (active)
same,IC50,[24],> 80 µM (inactive)
Cn1cc(/C=C(\C(=O)O)C(C(=O)O)=C2CCCCC2)c2ccccc21,IC50,Beta-lactamase [25],> 59.6 µM (inactive)
same,IC50,Beta-lactamase [26],> 59.6 µM (inactive)
CCN1CCN(C(=O)/C=C/c2ccc(C)cc2)CC1,IC50,Beta-galactosidase,> 80 µM (inactive)
COc1cc2c(c(OC)c1OC)-c1ccc(OC)c(=O)cc1[C@@H](NC(C)=O)CC2 [COLCHICINE],AC50,Cytochrome P450 2C9,3.16 µM (active)
same,GI50,P388,0.0625 µM (active)
same,AC50,Paired box protein Pax-8,< 0.26 µM (active)
same,GI50,P388/ADR,1.36 µM (inactive)
same,AC50,Cytochrome P450 2D6,0.794 µM (active)
same,IC50,[27],0.0628 µM (active)
same,IC50,[28],> 80 µM (inactive)
same,IC50,[29],0.0017 µM (active)
same,IC50,[30],> 67.6 µM (inactive)
same,GI50,SN12K1,< 0.0625 µM (active)
same,IC50,cells [31],> 67.6 µM (inactive)
Sc1nnc(-c2ccc3ccccc3n2)n1-c1ccc2c(c1)OCCO2,IC50,Beta-lactamase [32],> 59.6 µM (inactive)
same,IC50,Beta-lactamase [33],> 59.6 µM (inactive)
same,IC50,Beta-lactamase [34],> 59.6 µM (inactive)
